Activity data for 60 compounds are collected here from ChEMBL document CHEMBL1154116, “Predictive models, based on classification algorithms, for compounds potentially active as mitochondrial ATP-sensitive potassium channel openers” (Bioorg Med Chem, 2009).

For this experiment, the system named is Heart. The experiment in a line: Cardioprotective effect in Langendorff perfused isolated rat hearts assessed as reduction in ischemic injury. The class given is functional, tissue-based.

SMILES strings stand for the structures. Calls of active or inactive are those of the source. The rule behind the calls is not given here.

Consider `COc1cccc(CN2CCOC3(C2)CC(C)(C)Oc2ccccc23)c1` (stereo not given), for which the result was inactive. Next, `CC1(C)CC2(CN(S(=O)(=O)c3ccccc3)C(=O)CO2)c2ccccc2O1` (stereo not given): “inactive”; `CCC(C)(C)/N=C(\NC#N)Nc1cccnc1`: “inactive”. The entry for `CC1(C)CC2(CN(Cc3ccccc3)CCO2)c2cc(Br)ccc2O1` (stereo not given) is “inactive”; for `CC1(C)CC2(CN(Cc3ccccc3)C(=S)CO2)c2ccccc2O1` (stereo not given) it is “Active”; for `CC1(C)CC2(CN(Cc3ccc(C(F)(F)F)cc3)CCO2)c2cc(Br)ccc2O1` (stereo not given) it is “Active”. Next, `CC1(C)CN(C2=CCCC2=O)c2cc([N+](=O)[O-])ccc2S1`: “Active”; `CC1(C)Oc2ccc(C#N)cc2[C@H](N(Cc2ncc[nH]2)c2ccc(Cl)cc2)[C@H]1O`: “Active”.

Turning to `CC1(C)CC2(CN(C(=O)c3ccccc3)CCO2)c2ccccc2O1` (stereo not given), the outcome was inactive. The entry for `CC1(C)CC2(CN(Cc3ccccc3)C(=O)CO2)c2ccccc2O1` (stereo not given) is “inactive”; for `CC1=Nc2ccc(Cl)cc2S(=O)(=O)N1` it is “Active”. With `COc1cccc(CN2CC3(CC(C)(C)Oc4ccccc43)OCC2=O)c1` (stereo not given), the result was inactive.

Consider `CC1(C)CC2(OC(=O)N(Cc3ccc(NS(C)(=O)=O)cc3)C2=N)c2cc(Br)ccc2O1` (stereo not given), for which the result was inactive. `Cc1ccc(CN2CCOC3(C2)CC(C)(C)Oc2ccccc23)cc1` (stereo not given): the result was Active.

On to `CC1(C)CC2(CN(Cc3ccc(NS(C)(=O)=O)cc3)C(=O)O2)c2ccccc2O1` (stereo not given), for which the outcome was inactive. The entry for `CC1(C)CC2(CN(Cc3ccc(NS(C)(=O)=O)cc3)CCO2)c2ccccc2O1` (stereo not given) is “inactive”. Next, `CC1(C)CC2(CN(Cc3ccc(C(F)(F)F)cc3)C(=O)CO2)c2ccccc2O1` (stereo not given): “inactive”; `CC1(C)CC2(OC(=O)N(Cc3ccc(NS(C)(=O)=O)cc3)C2=N)c2ccccc2O1` (stereo not given): “inactive”; `CC1(C)CC2(CN(Cc3ccc(Br)cc3)CCO2)c2ccccc2O1` (stereo not given): “inactive”. Next, `CC1(C)CC2(CN(Cc3ccc(Br)cc3)C(=O)CO2)c2cc(Br)ccc2O1` (stereo not given): “inactive”; `CC(N/C(=N\C#N)Nc1ccncc1)C(C)(C)C` (stereo not given): “Active”; `CC1(C)CC2(CN(Cc3ccc(NS(C)(=O)=O)cc3)CCO2)c2cc(Br)ccc2O1` (stereo not given): “Active”. Turning to `Cc1ccc(CN2CC3(CC(C)(C)Oc4ccc(Br)cc43)OCC2=O)cc1` (stereo not given), the outcome was inactive. The entry for `CC1(C)CC2(CN(Cc3ccc(Br)cc3)C(=O)CO2)c2ccccc2O1` (stereo not given) is “Active”. For the compound `CC1(C)CC2(CN(Cc3ccc(N)cc3)C(=O)CO2)c2ccccc2O1` (stereo not given), the result was Active.

Regarding `Cc1ccc(C(=O)N2CCOC3(C2)CC(C)(C)Oc2ccccc23)cc1` (stereo not given), the outcome was inactive. The entry for `COc1ccccc1CN1CC2(CC(C)(C)Oc3ccc(Br)cc32)OCC1=O` (stereo not given) is “Active”; for `CC1(C)CC2(CN(Cc3ccc(N)cc3)C(=O)CO2)c2cc(Br)ccc2O1` (stereo not given) it is “Active”; for `CC1(C)CC2(CN(Cc3ccc(C(F)(F)F)cc3)CCO2)c2ccccc2O1` (stereo not given) it is “inactive”. The entry for `CC1(C)CC2(OC(=O)N(Cc3ccccc3)C2=N)c2cc(Br)ccc2O1` (stereo not given) is “inactive”; for `CC1(C)CC2(CN(S(=O)(=O)c3ccccc3)CCO2)c2ccccc2O1` (stereo not given) it is “inactive”; for `CC1(C)CC2(CN(Cc3ccc(C(F)(F)F)cc3)C(=O)CO2)c2cc(Br)ccc2O1` (stereo not given) it is “inactive”. The entry for `Cc1ccc(CN2CCOC3(C2)CC(C)(C)Oc2ccc(Br)cc23)cc1` (stereo not given) is “Active”; for `CC1(C)CC2(CN(C(=O)c3ccccc3)C(=O)CO2)c2ccccc2O1` (stereo not given) it is “inactive”; for `CC(=O)Nc1ccc(CN2C(=N)C3(CC(C)(C)Oc4ccccc43)OC2=O)cc1` (stereo not given) it is “Active”. In the case of `COc1ccccc1CN1CC2(CC(C)(C)Oc3ccccc32)OCC1=O` (stereo not given), the result was Active. The entry for `CC(=O)Nc1ccc(CN2CCOC3(C2)CC(C)(C)Oc2ccccc23)cc1` (stereo not given) is “inactive”; for `CC1(C)CN(C2=CCCC2=O)c2cc(C#N)ccc2S1` it is “Active”.

In the case of `CC(=O)Nc1ccc(C(=O)N2CCOC3(C2)CC(C)(C)Oc2ccccc23)cc1` (stereo not given), the result was inactive. `COc1ccc(CN2CC3(CC(C)(C)Oc4ccccc43)OCC2=O)cc1` (stereo not given): the result was inactive.

In the case of `CC1(C)CC2(CN(Cc3ccccc3)CCO2)c2ccccc2O1` (stereo not given), the outcome was Active. Turning to `COc1cccc(CN2CC3(CC(C)(C)Oc4ccc(Br)cc43)OCC2=O)c1` (stereo not given), the result was inactive. Regarding `COc1ccc(CN2CC3(CC(C)(C)Oc4ccc(Br)cc43)OCC2=O)cc1` (stereo not given), the outcome was Active. Next, `CC1(C)CC2(CN(Cc3ccc(N)cc3)CCO2)c2ccccc2O1` (stereo not given): “Active”; `CC(=O)Nc1ccc(CN2CC3(CC(C)(C)Oc4ccc(Br)cc43)OCC2=O)cc1` (stereo not given): “inactive”.

Consider `COc1ccc(CN2CCOC3(C2)CC(C)(C)Oc2ccccc23)cc1` (stereo not given), for which the outcome was Active. The entry for `CC1(C)Oc2ccc(C#N)cc2[C@@H](/N=C(\NC#N)Nc2ccc(Cl)cc2)[C@@H]1O` (single isomer, unassigned) is “Active”; for `CC1(C)Oc2ccc(C#N)cc2C(N2CCCC2=O)C1O` (stereo not given) it is “Active”. The entry for `CC(=O)Nc1ccc(CN2CC3(CC(C)(C)Oc4ccccc43)OC2=O)cc1` (stereo not given) is “inactive”; for `CC1(C)CC2(CN(Cc3ccccc3)C(=S)CO2)c2cc(Br)ccc2O1` (stereo not given) it is “inactive”.

For the compound `CC(=O)Nc1ccc(CN2CC3(CC(C)(C)Oc4ccccc43)OCC2=O)cc1` (stereo not given), the outcome was Active. The entry for `CC1(C)CC2(CN(Cc3ccc(NS(C)(=O)=O)cc3)C(=O)CO2)c2ccccc2O1` (stereo not given) is “Active”; for `CC1(C)CN(C2=CCCC2=O)c2cc(C(F)(F)F)ccc2S1` it is “Active”; for `CC(=O)Nc1ccc(CN2CCOC3(C2)CC(C)(C)Oc2ccc(Br)cc23)cc1` (stereo not given) it is “inactive”. Next, `Cc1ccc(CN2CC3(CC(C)(C)Oc4ccccc43)OCC2=O)cc1` (stereo not given): “inactive”; `COc1cccc(CN2CCOC3(C2)CC(C)(C)Oc2ccc(Br)cc23)c1` (stereo not given): “Active”; `CC1(C)CC2(CN(Cc3ccc(N)cc3)CCO2)c2cc(Br)ccc2O1` (stereo not given): “inactive”. Next, `CC1(C)CC2(CN(Cc3ccc(NS(C)(=O)=O)cc3)C(=O)CO2)c2cc(Br)ccc2O1` (stereo not given): “Active”; `CC1(C)CC2(CN(Cc3ccccc3)C(=O)CO2)c2cc(Br)ccc2O1` (stereo not given): “inactive”; `COc1ccc(CN2CCOC3(C2)CC(C)(C)Oc2ccc(Br)cc23)cc1` (stereo not given): “inactive”.
